Reference: patent US20180118801A1, “COMPOSITIONS AND METHODS FOR DIAGNOSING AND TREATING AUTOIMMUNE DISEASES” (THE REGENTS OF THE UNIVERSITY OF COLORADO, a body corporate, priority 2015, published 2018)
Entries after “also recorded” stand apart in the source; their conditions may differ.

Legend:
Experiment in all cases: T cell antigen assay, IFN-gamma ELISA response of T cell clone
Type in all cases: cell-based, NOD mouse
T cell clone BDC-9.3 = conditions: for T cell recognition/activation by HIP sequence (IFN-gamma response): BDC-9.3, synthetic HIP library screen (FIG. 2E); for IFN-gamma T cell response to peptides: BDC-9.3, exemplifying the IAPP-reactive clones, synthetic peptides, FIG. 4B
Description: (§1) The antigenicity of biochemical fractions, peptides, or reaction mixtures was assessed through the IFN-y responses of T-cell clones. In 96-well microtiter plates, assay cultures contained 2×10^4 responder T cells, 2.5×10^4 NOD peritoneal exudate cells as antigen-presenting cells, and -cell antigen. ELISA (BD Biosciences) was used to determine IFN-gamma production by the responder T cells. Aliquots of cell extracts (β-Mem) were used as positive controls throughout the experiments. Test wells contained biochemical fractions, peptides, or reaction mixtures. Synthetic peptides (>95%) were obtained from CHI Scientific.
(§2) For the synthesis of a HIP peptide through chemical crosslinking of an N-terminally acetylated “left peptide” and an unmodified “right peptide”, a two-step crosslinking procedure was adopted. To ensure water solubility of peptides, “left peptides” (>85%, CHI-Scientific) were N-terminally extended and “right peptides” (>85%, CHI-Scientific) were C-terminally extended through the addition of two arginine residues separated by an alanine residue from the core amino acid sequences. A total of 10 μl “left peptide” (10 mM: SEQ ID NO: 177 Acetyl-RRAHLVEAL. SEQ ID NO: 178 Acetyl-RRALVEALY, SEQ ID NO: 179 Acetyl-RRAVEALYL, SEQ ID NO. 180 Acetyl-RRAGDLQTL, SEQ ID NO: 181 Acetyl-RRADLQTLA, SEQ ID NO: 182 Acetyl-RRALQTLAL, SEQ ID NO: 183 Acetyl-RRAQTLALE, or SEQ ID NO: 184 Acetyl-RRATLALEV) was added to 74.5 μl reaction buffer (20 mM MES, 150 mM NaCl) in a 1.5 ml eppendorf tube, followed by the addition of a carbodiimide, such as, for example, 1.5 μl freshly prepared 500 mM 1-Ethyl-3-[3-dimethylaminopropyl]carbodiimide hydrochloride (EDC) and 1.5 μl 1000 mM N-hydroxysuccinimide (NHS). After 15 min of incubation at room temperature, a reducing agent was added, for example, […] of DTT (1000 mM) were added to quench residual EDC. Following another 15 min of incubation at room temperature, […] of “right peptide” (10 mM: SEQ ID NO: 185 KCNTATARR, SEQ ID NO: 186 NAARDPARR, SEQ ID NO: 187 TPVRSGTARR, or SEQ ID NO: 188 WSRMDARR) were added. Reaction mixtures were incubated for 16 h at 37° C., prior to the direct addition of […] to the T cell assay plates (see for example U.S. Pat. No. 5,589,458). ELISA was used to measure IFN-gamma T cell responses to individual HIP reaction mixtures. For each T cell clone, the ELISA absorbance values to all peptides were averaged and the standard deviation was calculated. If the absorbance value toward an individual HIP was three times the standard deviation (3×sd) above the average signal, the response toward the peptide was classified as positive.

T cell clone BDC-6.9 = conditions: for T cell recognition/activation by HIP sequence (IFN-gamma response): BDC-6.9 (same TCR as BDC-9.3); for IFN-gamma T cell response to peptides: BDC-6.9, synthetic peptides
Description: as §1, §2

[1] = test system: CD4 T cell clone BDC-9.46; conditions: synthetic HIP library screen (FIG. 2D)
Description: as §1, §2

[2] = test system: CD4 T cell clone BDC-10.1; conditions: synthetic HIP library screen (FIG. 2C)
Description: as §1, §2

CD4 T cell clone BDC-2.5 = conditions: for T cell recognition/activation by HIP sequence (IFN-gamma response): BDC-2.5, synthetic HIP library screen, positive if ELISA absorbance 3×sd above average (FIG. 2B); for IFN-gamma T cell response to peptides: BDC-2.5, illustrating the WE14-reactive clones, synthetic peptides, FIG. 4A
Description: as §1, §2

Substance: DLQTLALNAAR [Sequence 2]
- T cell recognition/activation by HIP sequence (IFN-gamma response) (T cell clone BDC-9.3): recognized
- T cell recognition/activation by HIP sequence (IFN-gamma response) (T cell clone BDC-6.9): recognized

Substance: DLQTLALWSRM [Sequence 1]
- T cell recognition/activation by HIP sequence (IFN-gamma response) [1]: recognized
- T cell recognition/activation by HIP sequence (IFN-gamma response) [2]: recognized
- T cell recognition/activation by HIP sequence (IFN-gamma response) (CD4 T cell clone BDC-2.5): recognized

Substance: IAPP2-HIP: HIP spanning full-length Ins2 C-Peptide fragment ending in LQTLAL on the N-terminal side and the entire IAPP2 sequence on the C-terminal side (EVEDPQVAQLELGGGPGAGDLQTLALNAAGDPNRESLDFLLV)
- IFN-gamma T cell response to peptides (T cell clone BDC-9.3): low nanomolar concentrations
- IFN-gamma T cell response to peptides (T cell clone BDC-6.9): low nanomolar concentrations

Substance: IAPP2: IAPP propeptide 2, naturally occurring cleavage product found in secretory granules of β-cells (NAAGDPNRESLDFLLV)
- IFN-gamma T cell response to peptides (T cell clone BDC-9.3): Neither BDC-9.3 nor BDC-6.9 recognize; also recorded: not responsive
- IFN-gamma T cell response to peptides (T cell clone BDC-6.9): Neither BDC-9.3 nor BDC-6.9 recognize

Substance: LQTLALNAARD [SEQ ID NO: 197]
- T cell recognition/activation by HIP sequence (IFN-gamma response) (T cell clone BDC-9.3): recognized
- T cell recognition/activation by HIP sequence (IFN-gamma response) (T cell clone BDC-6.9): recognized

Substance: LQTLALWSRMD [SEQ ID NO: 199]
- T cell recognition/activation by HIP sequence (IFN-gamma response) [1]: activate
- T cell recognition/activation by HIP sequence (IFN-gamma response) [2]: activate
- T cell recognition/activation by HIP sequence (IFN-gamma response) (CD4 T cell clone BDC-2.5): activate

Substance: WE14-HIP: HIP spanning full-length Ins2 C-Peptide fragment ending in LQTLAL on the N-terminal side and the entire WE14 sequence on the C-terminal side (EVEDPQVAQLELGGGPGAGDLQTLALWSRMDQLAKELTAE)
- IFN-gamma T cell response to peptides (CD4 T cell clone BDC-2.5): low nanomolar concentrations

Substance: WE14: naturally occurring peptide cleavage product of chromogranin A (ChgA) (WSRMDQLAKELTAE)
- IFN-gamma T cell response to peptides (CD4 T cell clone BDC-2.5): weakly antigenic; also recorded: poorly antigenic; also recorded: high concentrations

Substance: insulin 2 C-peptide fragment ending with the amino acid sequence SEQ ID NO: 192 DLQTLAL: insulin 2 C-peptide fragment ending with DLQTLAL (EVEDPQVAQLELGGGPGAGDLQTLAL)
- IFN-gamma T cell response to peptides (T cell clone BDC-9.3): None of the clones respond
- IFN-gamma T cell response to peptides (CD4 T cell clone BDC-2.5): None of the clones respond

Substance: insulin 2 C-peptide: full length mouse insulin 2 C-peptide (EVEDPQVAQLELGGGPGAGDLQTLALEVAQQ)
- IFN-gamma T cell response to peptides (T cell clone BDC-9.3): None of the clones respond
- IFN-gamma T cell response to peptides (CD4 T cell clone BDC-2.5): None of the clones respond
- IFN-gamma T cell response to peptides (CD4 T cell clone BDC-2.5; listed as Ins2 C-Peptide): None of the clones respond
- IFN-gamma T cell response to peptides (CD4 T cell clone BDC-2.5; listed as insulin C-peptide): none of the WE14-reactive T cell clones recognize
